Assay results as given in US12018021B2 (UCB Biopharma SRL, priority 2018, dated 2024).

Target: IgE-Tb / FcεRIα-Y131A-AF488 (Homo sapiens, UniProt P01854)
Assay: IgE-Tb / FcεRIα-Y131A-AF488 FRET assay (protocol for examples 1 to 233)
Format: binding
Conditions: examples 1 to 233: 5 nM IgE-Tb, 25 nM FcεRIα-Y131A-AF488, incubated 2 hours at room temperature; read-out: Y131A FRET IC50 range
In short: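 TR-FRET displacement with 5 nM IgE-Tb and 25 nM FcεRIα-Y131A-AF488 (final), 10-point 3-fold compound dilutions from typically 10 μM top, 2% DMSO, 2 h at room temperature. Excitation 330 nm, 520/495 nm emission ratio; MIN set with 200 nM unlabelled FcεRIα. IC50 from four-parameter logistic fit of percent inhibition.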

Chain of IgE-Tb / FcεRIα-Y131A-AF488 (P01854 1-427 limits assumed, stated change not applied): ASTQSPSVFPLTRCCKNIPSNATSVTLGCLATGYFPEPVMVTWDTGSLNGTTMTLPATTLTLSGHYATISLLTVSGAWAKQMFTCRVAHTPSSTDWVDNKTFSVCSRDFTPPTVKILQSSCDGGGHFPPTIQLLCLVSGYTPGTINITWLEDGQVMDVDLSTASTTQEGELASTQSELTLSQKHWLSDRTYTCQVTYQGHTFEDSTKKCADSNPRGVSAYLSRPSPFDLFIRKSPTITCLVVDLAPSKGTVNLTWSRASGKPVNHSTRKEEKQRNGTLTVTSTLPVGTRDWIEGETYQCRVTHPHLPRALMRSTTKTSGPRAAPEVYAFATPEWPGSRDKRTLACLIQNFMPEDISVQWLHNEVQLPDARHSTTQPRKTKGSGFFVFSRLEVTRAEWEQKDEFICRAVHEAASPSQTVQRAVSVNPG

First: O=C(NCC1CC1)c1c(NC(=O)C2CC2)sc2c1CC(Nc1nncn1-c1ccc(F)cc1)CC2 (centres unmarked) [Example 165, 2-(Cyclopropanecarbonylamino)-N-(cyclopropylmethyl)-5-[[4-(4-fluorophenyl)-1,2,4-triazol-3-yl]amino]-4,5,6,7-tetrahydrobenzothiophene-3-carboxamide]
Second: O=C(NCC1CC1)c1c(NC(=O)C2CC2)sc2c1C[C@@H](Nc1nccn1-c1cccnc1)CC2 [Example 170, (5S)-2-(Cyclopropanecarbonylamino)-N-(cyclopropylmethyl)-5-[[1-(3-pyridyl)imidazol-2-yl]amino]-4,5,6,7-tetrahydrobenzothiophene-3-carboxamide]
The IC50 of the first is lower: under 1000 nM for the first, 1000 to 10000 nM for the second.

`O=C(NCC1CC1)c1c(NC(=O)C2CC2)sc2c1C[C@@H](Nc1ncc[nH]1)CC2` [Example 166, (5S)-2-(Cyclopropanecarbonylamino)-N-(cyclopropylmethyl)-5-(1H-imidazol-2-ylamino)-4,5,6,7-tetrahydrobenzothiophene-3-carboxamide] and `O=C(NCC1CC1)c1c(NC(=O)C2CC2)sc2c1CC(Nc1ncccn1)CC2` (centres unmarked) [Example 191, 2-(Cyclopropanecarbonylamino)-N-(cyclopropylmethyl)-5-(pyrimidin-2-ylamino)-4,5,6,7-tetrahydrobenzothiophene-3-carboxamide] cannot be ordered by IC50: under 1000 nM for the first, under 1000 nM for the second.

`Cc1cc(Nc2nncn2C2CCc3sc(NC(=O)C4CC4)c(S(=O)(=O)NCC(C)C)c3C2)n(C)n1` (centres unmarked) [Example 167] and `Cc1cc(Nc2nncn2C2CCc3sc(NC(=O)C4CC4)c(C(=O)NC4CC(F)C4)c3C2)n(C)n1` (centres unmarked) [Example 193, 2-(cyclopropanecarbonylamino)-5-[3-[(2,5-dimethylpyrazol-3-yl)amino]-1,2,4-triazol-4-yl]-N-(3-fluorocyclobutyl)-4,5,6,7-tetrahydrobenzothiophene-3-carboxamide] cannot be ordered by IC50: under 1000 nM for the first, under 1000 nM for the second.

First: CON=C(Nc1ccc(C)cc1)NC1CCc2sc(NC(=O)C3CC3)c(C(=O)NCC3CC3)c2C1 (centres unmarked) [Example 168, 2-(Cyclopropanecarbonylamino)-N-(cyclopropylmethyl)-5-[[N′-methoxy-N-(p-tolyl)carbamimidoyl]amino]-4,5,6,7-tetrahydrobenzothiophene-3-carboxamide]
Second: Cc1ccc(NC(=Nc2ccn(C)n2)NC2CCc3sc(NC(=O)C4CC4)c(C(=O)NCC4CC4)c3C2)cc1 (centres unmarked) [Example 177, 2-(Cyclopropanecarbonylamino)-N-(cyclopropylmethyl)-5-[[N′-(1-methylpyrazol-3-yl)-N-(p-tolyl)carbamimidoyl]amino]-4,5,6,7-tetrahydrobenzothiophene-3-carboxamide; formic acid]
The IC50 of the first is lower: under 1000 nM for the first, 1000 to 10000 nM for the second. The first is the more potent here.

First: Cc1ccc(NC2=NS(=O)(=O)N=C2NC2CCc3sc(NC(=O)C4CC4)c(C(=O)NCC4CC4)c3C2)cc1 (centres unmarked) [Example 169, 2-(Cyclopropanecarbonylamino)-N-(cyclopropylmethyl)-5-[[4-(4-methylanilino)-1,1-dioxo-1,2,5-thiadiazol-3-yl]amino]-4,5,6,7-tetrahydrobenzothiophene-3-carboxamide]
Second: Cc1ccc(N2C(=O)CN=C2NC2CCc3sc(NC(=O)C4CC4)c(C(=O)NCC4CC4)c3C2)cc1 (centres unmarked) [Example 194, 2-(Cyclopropanecarbonylamino)-N-(cyclopropylmethyl)-5-[[5-oxo-1-(p-tolyl)-4H-imidazol-2-yl]amino]-4,5,6,7-tetrahydrobenzothiophene-3-carboxamide]
The IC50 of the first is lower: under 1000 nM for the first, 1000 to 10000 nM for the second. The first is the more potent here.

`Nc1cnnn1C1CCc2sc(NC(=O)C3CC3)c(C(=O)NCC3CC3)c2C1` (centres unmarked) [Example 171, 5-(5-Aminotriazol-1-yl)-2-(cyclopropanecarbonylamino)-N-(cyclopropylmethyl)-4,5,6,7-tetrahydrobenzothiophene-3-carboxamide] and `Nc1nccn1[C@H]1CCc2sc(NC(=O)C3CC3)c(C(=O)NCC3CC3)c2C1` [Example 186, (5S)-5-(2-Aminoimidazol-1-yl)-2-(cyclopropanecarbonylamino)-N-(cyclopropylmethyl)-4,5,6,7-tetrahydrobenzothiophene-3-carboxamide] cannot be ordered by IC50: under 1000 nM for the first, under 1000 nM for the second.

`COc1ccccc1NC(=O)NC1CCc2sc(NC(=O)C3CC3)c(C(=O)NCC3CC3)c2C1` (centres unmarked) [Example 172, 2-(Cyclopropanecarbonylamino)-N-(cyclopropylmethyl)-5-[(2-methoxyphenyl)carbamoylamino]-4,5,6,7-tetrahydrobenzothiophene-3-carboxamide] and `Cc1ccc(OC(=O)NC2CCc3sc(NC(=O)C4CC4)c(C(=O)NCC4CC4)c3C2)cc1` (centres unmarked) [Example 181, p-Tolyl N-[2-(cyclopropanecarbonylamino)-3-(cyclopropylmethylcarbamoyl)-4,5,6,7-tetrahydrobenzothiophen-5-yl]carbamate] cannot be ordered by IC50: under 1000 nM for the first, under 1000 nM for the second.

First: O=C(NC1CCc2sc(NC(=O)C3CC3)c(C(=O)NCC3CC3)c2C1)c1ccncc1 (centres unmarked) [Example 173, N-[2-(Cyclopropanecarbonylamino)-3-(cyclopropylmethylcarbamoyl)-4,5,6,7-tetrahydrobenzothiophen-5-yl]pyridine-4-carboxamide]
Second: NC(=NO)NC1CCc2sc(NC(=O)C3CC3)c(C(=O)NCC3CC3)c2C1 (centres unmarked) [Example 176, 2-(Cyclopropanecarbonylamino)-N-(cyclopropylmethyl)-5-[[N′-hydroxycarbamimidoyl]amino]-4,5,6,7-tetrahydrobenzothiophene-3-carboxamide]
The IC50 of the first is higher: 1000 to 10000 nM for the first, under 1000 nM for the second. The second is the more potent here.

First: O=C(NCC1CC1)c1c(NC(=O)C2CC2)sc2c1CC(NCc1ccccc1)CC2 (centres unmarked) [Example 174, 5-(Benzylamino)-2-(cyclopropanecarbonylamino)-N-(cyclopropylmethyl)-4,5,6,7-tetrahydrobenzothiophene-3-carboxamide]
Second: O=C(NCC1CC1)c1c(NC(=O)C2CC2)sc2c1CC(Nc1nc3ccccc3[nH]1)CC2 (centres unmarked) [Example 175, 5-(1H-Benzimidazol-2-ylamino)-2-(cyclopropanecarbonylamino)-N-(cyclopropylmethyl)-4,5,6,7-tetrahydrobenzothiophene-3-carboxamide]
The IC50 of the first is higher: 10000 to 50000 nM for the first, under 1000 nM for the second.

First: CCNc1nnc(COC)n1C1CCc2sc(NC(=O)C3CC3)c(C(=O)NCC3CC3)c2C1 (centres unmarked) [Example 179, 2-(Cyclopropanecarbonylamino)-N-(cyclopropylmethyl)-5-[3-(ethylamino)-5-(methoxymethyl)-1,2,4-triazol-4-yl]-4,5,6,7-tetrahydrobenzothiophene-3-carboxamide]
Second: CCNc1nnc(CO)n1C1CCc2sc(NC(=O)C3CC3)c(C(=O)NCC3CC3)c2C1 (centres unmarked) [Example 184, 2-(Cyclopropanecarbonylamino)-N-(cyclopropylmethyl)-5-[3-(ethylamino)-5-(hydroxymethyl)-1,2,4-triazol-4-yl]-4,5,6,7-tetrahydrobenzothiophene-3-carboxamide]
The IC50 of the first is higher: 1000 to 10000 nM for the first, under 1000 nM for the second.

`O=C(NCC1CC1)c1c(NC(=O)C2CC2)sc2c1CC(Nc1n[nH]c(-c3cccnc3)n1)CC2` (centres unmarked) [Example 180, 2-(Cyclopropanecarbonylamino)-N-(cyclopropylmethyl)-5-[[5-(3-pyridyl)-1H-1,2,4-triazol-3-yl]amino]-4,5,6,7-tetrahydrobenzothiophene-3-carboxamide] and `O=C(NCC1CC1)c1c(NC(=O)C2CC2)sc2c1CC(Nc1ncc3ccccc3n1)CC2` (centres unmarked) [Example 182, 2-(Cyclopropanecarbonylamino)-N-(cyclopropylmethyl)-5-(quinazolin-2-ylamino)-4,5,6,7-tetrahydrobenzothiophene-3-carboxamide] cannot be ordered by IC50: under 1000 nM for the first, under 1000 nM for the second.

`O=C(NCC1CC1)c1c(NC(=O)C2CC2)sc2c1CC(Nc1nc3ccccc3o1)CC2` (centres unmarked) [Example 183, 5-(1,3-Benzoxazol-2-ylamino)-2-(cyclopropanecarbonylamino)-N-(cyclopropylmethyl)-4,5,6,7-tetrahydrobenzothiophene-3-carboxamide] and `O=C(NCC1CC1)c1c(NC(=O)C2CC2)sc2c1CC(Nc1nnco1)CC2` (centres unmarked) [Example 192, 2-(Cyclopropanecarbonylamino)-N-(cyclopropylmethyl)-5-(1,3,4-oxadiazol-2-ylamino)-4,5,6,7-tetrahydrobenzothiophene-3-carboxamide] cannot be ordered by IC50: under 1000 nM for the first, under 1000 nM for the second.

`Cc1cc(Nc2nncn2C2CCc3sc(NC(=O)C4CC4)c(C(=O)NC4CC(F)(F)C4)c3C2)n(C)n1` (centres unmarked) [Example 185, 2-(cyclopropanecarbonylamino)-N-(3,3-difluorocyclobutyl)-5-[3-[(2,5-dimethylpyrazol-3-yl)amino]-1,2,4-triazol-4-yl]-4,5,6,7-tetrahydrobenzothiophene-3-carboxamide] and `CCNc1nnc(C)n1C1CCc2sc(NC(=O)C3CC3)c(C(=O)NCC3CC3)c2C1` (centres unmarked) [Example 188, 2-(Cyclopropanecarbonylamino)-N-(cyclopropylmethyl)-5-[3-(ethylamino)-5-methyl-1,2,4-triazol-4-yl]-4,5,6,7-tetrahydrobenzothiophene-3-carboxamide] cannot be ordered by IC50: under 1000 nM for the first, under 1000 nM for the second.

Compared with `Nc1noc(=O)n1C1CCc2sc(NC(=O)C3CC3)c(C(=O)NCC3CC3)c2C1` (centres unmarked) [Example 187, 5-(3-Amino-5-oxo-1,2,4-oxadiazol-4-yl)-2-(cyclopropanecarbonylamino)-N-(cyclopropylmethyl)-4,5,6,7-tetrahydrobenzothiophene-3-carboxamide], `CS(=N)(=O)NC1CCc2sc(NC(=O)C3CC3)c(C(=O)NCC3CC3)c2C1` (centres unmarked) [Example 196, 2-(Cyclopropanecarbonylamino)-N-(cyclopropylmethyl)-5-[(methylsulfonimidoyl)amino]-4,5,6,7-tetrahydrobenzothiophene-3-carboxamide] is higher in IC50: under 1000 nM for the first, 1000 to 10000 nM for the second. The first is the more potent here.

`CCN(C)c1c(NC2CCc3sc(NC(=O)C4CC4)c(C(=O)NCC4CC4)c3C2)c(=O)c1=O` (centres unmarked) [Example 195, 2-(Cyclopropanecarbonylamino)-N-(cyclopropylmethyl)-5-[[2-[ethyl(methyl)amino]-3,4-dioxo-cyclobuten-1-yl]amino]-4,5,6,7-tetrahydrobenzothiophene-3-carboxamide] showed an IC50 of under 1000 nM.
